{
  "source": "patent US20260117192A1",
  "about": "“METHODS OF PRODUCING A TUMOR AVATAR” (ARIEL SCIENTIFIC INNOVATIONS LTD., priority 2023, published 2026)",
  "key": {"gastric cancer organoids": {"test_system": "gastric cancer organoids", "test": "Drug cytotoxicity, CellTiter-Glo cell viability and bright field images, organoids", "assay_type": "cell-based, human", "settings": "for cell death: targeted drugs at concentrations found in peripheral blood (crizotinib 1 μM, osimertinib 0.8 μM, afatinib 0.150 μM); for effect on viability: targeted drugs, 72 hours (dasatinib 0.180 μM, gefitinib 3 μM, imatinib 4 μM, capmatinib 8 μM)", "description": "(§1) Organoids and stroma cells isolation and culture: Human gastric cancer along with surrounding normal tissue were obtained from a consenting patient undergoing surgery at Ichilov Hospital, with approval from the Institutional Review Board. The samples were transported in cold hypothermosol medium and processed within 24 hours post-surgery. Upon acquisition, the tumor tissue was divided into three equal parts for various analyses. One third was snap-frozen for subsequent DNA isolation, another third was fixed in 4% paraformaldehyde for histological examination, and the remaining portion was prepared for cell culture. The tissue underwent digestion using Collagenase I (1 mg/ml), Liberase, and DNAse (10 ug/ml), followed by separation into organoids and stroma cell cultures. Organoids were cultured as previously described hereinbelow, with medium replacement twice weekly and passaging via mechanical and enzymatic dissociation using TrypLE enzyme. Stroma cells were cultured in mesenchymal stem cell medium (MSCM) on pre-coated Matrigel (20%) and fibronectin (2 μg/cm2) 4-well dish plates. Upon reaching 80% confluency the cells were subculturing using accutase to 6 well plate and then to 25 cm flask. From passage 3 onwards, cells were sub-cultured in 25 cm flask and then in 75 cm flasks using MSCM, endothelial cell medium (ECM), or fibroblast medium (FM-2) for subsequent passages. Bright field images were obtained using Operetta High Content Screening System or Leica microscope.\n(§2) Cell viability assay: To assess co-culture growth rates and the cytotoxic effects of various drugs, a luminescent cell viability assay was conducted using the CellTiter-Glo kit from Promega following the manufacturer's guidelines. For the drug cytotoxicity assay, co-cultures or organoids were seeded in 384-well plates and allowed to organize for 48 hours. […] The chosen drug concentrations were based on their higher plasma concentration values. Following treatment, each well containing co-cultures or organoids was lysed using CellTiter-Glo reagents, thoroughly mixed, and incubated for 30 minutes, after which luminescence was measured."}, "stroma cell monocultures": {"test_system": "stroma cell monocultures", "test": "Drug cytotoxicity, CellTiter-Glo cell viability, stroma cell monocultures", "assay_type": "cell-based, human", "settings": "stroma cells monocultures, targeted drugs, 72 hours (dasatinib 0.180 μM, imatinib 4 μM, capmatinib 8 μM)", "description": "as §1, with “Stroma cells were cultured in mesenchymal stem cell medium (MSCM) on pre-coated Matrigel (20%) and fibronectin (2 μg/cm2) 4-well dish plates. Upon reaching 80% confluency the cells were subculturing using accutase to 6 well plate and then to 25 cm flask. From passage 3 onwards, cells were sub-cultured in 25 cm flask and then in 75 cm flasks using MSCM, endothelial cell medium (ECM), or fibroblast medium (FM-2) for subsequent passages. Bright field images were obtained using Operetta High Content Screening System or Leica microscope.” left out\n(§3) Cell viability assay: To assess co-culture growth rates and the cytotoxic effects of various drugs, a luminescent cell viability assay was conducted using the CellTiter-Glo kit from Promega following the manufacturer's guidelines. […] Following treatment, each well containing co-cultures or organoids was lysed using CellTiter-Glo reagents, thoroughly mixed, and incubated for 30 minutes, after which luminescence was measured."}, "[1]": {"test_system": "ECM:FM2:ORG co-cultures (TECs:TASCs:Org)", "test": "Drug cytotoxicity, CellTiter-Glo cell viability and bright field images, organoid-stroma cell co-cultures", "assay_type": "cell-based, human", "settings": "for effect on viability: co-culture, targeted drugs, 72 hours (afatinib 0.150 μM, osimertinib 0.8 μM, dasatinib 0.180 μM, gefitinib 3 μM, imatinib 4 μM, capmatinib 8 μM)", "description": "Organoid-stroma cells co-culture: Initially, organoids were mechanically dissociated into smaller fragments through pipetting, followed by enzymatic digestion into single cells using dispase II at 37° C. for 20 minutes. Concurrently, stroma cells cultured in FM-2, ECM, and MSCM, as well as Huvec cells cultured in ECM, were harvested at 80% confluency in the flask and dissociated using accutase. In certain experiments, after cells dissociation, each cell population was stained with a vital dye before their co-culture. Cells cultured in ECM and Huvec cell lines were stained blue using the CellTrace Violet Dye Proliferation Kit. […] Imaging was performed at 10× magnification using an Olympus Confocal Microscope. Subsequently, dissociated cells were mixed in 35 ul of co-culture medium, at ratios of 1:1:1, 1:4:1, 4:1:1 and 1:1:4 of Huvec or cells cultured in ECM, cells cultured in FM2 and organoids respectively. Co-cultures composed of ECM:organoids (ORG), FM2:ORG, and Huvec:ORG were also created at 1:1, 1:4, and 4:1 ratios, respectively. Each mix, containing 4000 cells, was then co-cultured in 384 wells low repellent plates, with DMEM/F12 medium supplemented with 10 mM HEPES, abam, 2 mM glutamax, non-essential amino acids, sodium pyruvate, 500 ng ml-1 R-spondin, 100 ng ml-1 noggin, 100 ng ml-1 Wnt3A, 10 nM gastrin, Prostaglandin E2, 100 ng ml-1 IGF1, 10 ng·ml-1 FGF2, 10 ng·ml-1 FGF10, 50 ng·ml-1 EGF, B27, 0.5 μM A 83-01, 4 mM nicotinamide, 10 μM Y-27632, 1 μg ml-1 hydrocortisone, 50 μg ml-1 ascorbic acid, 5 ng ml-1 VEGF and 100 ng ml-1 IL-6, 4 μg ml-1 heparin, and 5% fetal calf serum in 10 ng·ml-1 and fibronectin and 5% Matrigel as scaffold and incubated in 5% CO2 at 37° C. for different intervals of time.\nas §2"}, "pancreas organoids": {"test_system": "pancreas organoids", "test": "Celltiter-Glo viability of drug treated pancreas organoids", "assay_type": "cell-based, human", "settings": "72 hours treatment", "description": "(§4) FIGS. 10A-10B: (10A) Representative immunofluorescence and brightfield images of human pancreas tumor avatar composed of Huvec endothelial cells, Org and TASCs mix at a 1:1:1, 1:4:1 or 4:1:1 ratio, respectively cultivated in a Matrigel (5%) and fibronectin scaffold (10 ng/ml), during 6 days. Org were stained with Cell Vue Claret far red fluorochrome (purple cells). Cell viability was assessed by Calcein (green)/PI (red) staining and images were acquired with Operetta Imager at 5× magnification. (10B) Line graphs showing relative light unit percentage (RLU %) of everolimus or FOLFOX treated pancreas tumor avatars and organoids as compared with their respective vehicle controls, after the same day of drug or vehicle exposure, (RLU %=RLUtreatment*100)/RLUveh). Tumor avatars were cultured for 3 days, treated with the specified drugs for other 72 hours and viability determined by Celltiter-Glo assay.\n(§5) Next, the inventors aimed to examine a tumor avatar model, composed of pancreas tumor epithelial cells, TASCs and Huvec cells, cultured in the presence of a Matrigel and fibronectin scaffold. Huvec, TASCs and […] organoid-derived tumor epithelial cells clusters (5-15 cells/cluster) were seeded at different ratios (1:1:1, 1:4:4 or 4:1:4 respectively) and cultured for 6 days. Tumor cells, labelled with CellVue Claret far red fluorochrome localized in the interior of the tumor avatar."}, "[2]": {"test_system": "human pancreas tumor avatar", "test": "Celltiter-Glo viability of drug treated pancreas tumor avatars", "assay_type": "cell-based", "settings": "pancreas tumor avatars (Huvec, TASCs, Org), cultured 3 days, treated 72 hours", "description": "as §4, §5"}, "[3]": {"test_system": "HUVEC:FM-2:ORG co-cultures", "test": "Drug cytotoxicity, CellTiter-Glo cell viability, co-cultures containing Huvec cells", "assay_type": "cell-based, human", "settings": "paclitaxel 5 μM, 72 hours", "description": "Organoid-stroma cells co-culture: Initially, organoids were mechanically dissociated into smaller fragments through pipetting, followed by enzymatic digestion into single cells using dispase II at 37° C. for 20 minutes. Concurrently, stroma cells cultured in FM-2, ECM, and MSCM, as well as Huvec cells cultured in ECM, were harvested at 80% confluency in the flask and dissociated using accutase. In certain experiments, after cells dissociation, each cell population was stained with a vital dye before their co-culture. Cells cultured in ECM and Huvec cell lines were stained blue using the CellTrace Violet Dye Proliferation Kit. […] Imaging was performed at 10× magnification using an Olympus Confocal Microscope. Subsequently, dissociated cells were mixed in 35 ul of co-culture medium, at ratios of 1:1:1, 1:4:1, 4:1:1 and 1:1:4 of Huvec or cells cultured in ECM, cells cultured in FM2 and organoids respectively. […]\nas §3"}, "[4]": {"test_system": "human gastric tumor avatars in the presence of lymphocytes", "test": "Cell-Titer Glo viability of gastric tumor avatars with peripheral blood lymphocytes", "assay_type": "cell-based", "settings": "avatars of patient 1 and patient 2 with autologous lymphocytes, various concentrations, 72 hours", "excerpt": "FIGS. 12A-12F: (12A) Representative brightfield images of human gastric tumor avatars from a patient with gastrointestinal sarcoma (patient 1) and a second patient (patient 2) with gastric adenocarcinoma, composed of organoids and stroma cells. Cells were dissociated from gastric tissue and cultured in a Matrigel dome in an adherent plate in tumor avatar medium from day 0. After 7 days of culture, organoids remain in the dome and stroma cells and metastatic tumor cells invaded the tissue culture plate outside the dome. […] (12B) Representative brightfield images of defrosted human gastric tumor avatars from defrosted tumor avatars. The tumor avatars were sub-cultured in a Matrigel dome using an adherent plate in the presence of tumor avatar medium from day 3 to day 13. […] (12C-12D). Representative brightfield images of human gastric tumor avatars from a patient with gastrointestinal sarcoma (patient 1) and a second patient (patient 2) with gastric adenocarcinoma, composed of organoids and stroma cells. […] Cell viability was detected after 72 hours of treatment using Cell-Titer Glo assay.\nLymphocytes were isolated from the peripheral blood of patient 1 and patient 2. […] Pembrolizumab was added at various concentrations to the tumor avatars and cell viability was monitored for 72 hours after treatment using the Cell-Titer Glo assay."}, "[5]": {"test_system": "patient 1 (gastrointestinal sarcoma) and patient 2 (gastric adenocarcinoma)", "test": "Administration to the patients", "assay_type": "in vivo, human", "settings": "both patients"}},
  "data": [
    {"molecule": "CN(C)C/C=C/C(=O)Nc1cc2c(Nc3ccc(F)c(Cl)c3)ncnc2cc1O[C@H]1CCOC1", "note": "[afatinib]", "values": [
      {"measurement": "cell death", "setting": "gastric cancer organoids; organoids, 72 hours", "result": "approximately 50%"}
    ]},
    {"molecule": "CNC(=O)c1ccc(-c2cnc3ncc(Cc4ccc5ncccc5c4)n3n2)cc1F", "note": "[capmatinib]", "values": [
      {"measurement": "effect on viability", "setting": "gastric cancer organoids; organoids", "result": "neither the organoids nor the co-culture showed significant response"},
      {"measurement": "effect on viability", "setting": "stroma cell monocultures", "result": "decreased viability"},
      {"measurement": "effect on viability", "setting": "[1]", "result": "neither the organoids nor the co-culture showed significant response"}
    ]},
    {"molecule": "C[C@@H](Oc1cc(-c2cnn(C3CCNCC3)c2)cnc1N)c1c(Cl)ccc(F)c1Cl", "note": "[crizotinib]", "values": [
      {"measurement": "cell death", "setting": "gastric cancer organoids; organoids, 72 hours", "result": "more than 50%"},
      {"measurement": "cell death", "setting": "[1]; stroma cells-organoid co-cultures, crizotinib 1 μM, 72 hours", "result": "more than 50%"}
    ]},
    {"molecule": "CO[C@H]1C[C@@H]2CC[C@@H](C)[C@@](O)(O2)C(=O)C(=O)N2CCCC[C@H]2C(=O)O[C@H]([C@H](C)C[C@@H]2CC[C@@H](OCCO)[C@H](OC)C2)CC(=O)[C@H](C)/C=C(\\C)[C@@H](O)[C@@H](OC)C(=O)[C@H](C)C[C@H](C)/C=C/C=C/C=C/1C", "note": "[everolimus]", "values": [
      {"measurement": "effect of treatment on viability (RLU %)", "setting": "pancreas organoids", "result": "neither the organoids nor the tumor avatar models were affected"},
      {"measurement": "effect of treatment on viability (RLU %)", "setting": "[2]", "result": "neither the organoids nor the tumor avatar models were affected"}
    ]},
    {"molecule": "COc1cc2ncnc(Nc3ccc(F)c(Cl)c3)c2cc1OCCCN1CCOCC1", "note": "[gefitinib]", "values": [
      {"measurement": "effect on viability", "setting": "gastric cancer organoids; organoids", "result": "neither the organoids nor the co-culture showed significant response"},
      {"measurement": "effect on viability", "setting": "[1]", "result": "neither the organoids nor the co-culture showed significant response"}
    ]},
    {"molecule": "Cc1ccc(NC(=O)c2ccc(CN3CCN(C)CC3)cc2)cc1Nc1nccc(-c2cccnc2)n1", "note": "[imatinib]", "values": [
      {"measurement": "effect on viability", "setting": "gastric cancer organoids; organoids", "result": "neither the organoids nor the co-culture showed significant response"},
      {"measurement": "effect on viability", "setting": "stroma cell monocultures", "result": "decreased viability"},
      {"measurement": "effect on viability", "setting": "[1]", "result": "neither the organoids nor the co-culture showed significant response"}
    ]},
    {"molecule": "C=CC(=O)Nc1cc(Nc2nccc(-c3cn(C)c4ccccc34)n2)c(OC)cc1N(C)CCN(C)C", "note": "[osimertinib]", "values": [
      {"measurement": "cell death", "setting": "gastric cancer organoids; organoids, 72 hours", "result": "approximately 50%"},
      {"measurement": "effect on viability", "setting": "[1]", "result": "resistant"}
    ]},
    {"molecule": "CC(=O)O[C@H]1C(=O)[C@@]2(C)[C@H]([C@H](OC(=O)c3ccccc3)[C@]3(O)C[C@H](OC(=O)[C@H](O)[C@@H](NC(=O)c4ccccc4)c4ccccc4)C(C)=C1C3(C)C)[C@]1(OC(C)=O)CO[C@@H]1C[C@@H]2O", "note": "[paclitaxel]", "values": [
      {"measurement": "cytotoxicity at 5 µM", "setting": "gastric cancer organoids; Homo sapiens, 72 h, read-out: decrease in cell viability", "result": 53, "unit": "%"},
      {"measurement": "size and integrity in bright field images", "setting": "gastric cancer organoids; organoids, paclitaxel 5 μM, 72 hours", "result": "reduced the size and affected the integrity"},
      {"measurement": "cell death", "setting": "[1]; TECs:TASCs:Org ratio 1:1:4, paclitaxel 5 μM, 72 hours", "result": 22, "unit": "%"},
      {"measurement": "cell death", "setting": "[1]; TECs:TASCs:Org ratios 1:1:1, 4:1:1 and 1:4:1, paclitaxel 5 μM, 72 hours", "result": "approximately 40%"},
      {"measurement": "size and integrity in bright field images", "setting": "[1]; co-cultures, paclitaxel 5 μM, 72 hours", "result": "reduced the size and affected the integrity"},
      {"measurement": "cell death", "setting": "[3]", "result": "approximately 10%"}
    ]},
    {"molecule": "Pembrolizumab: Pembrolizumab immunotherapy", "values": [
      {"measurement": "effectiveness (cell viability)", "setting": "[4]", "result": "effective"},
      {"measurement": "patient response", "setting": "[5]", "result": "both respond"}
    ]}
  ]
}
